Values of other authors as cited in patent publication US10137245B2 (priority 2010, dated 2018).

Experiments:
healthy human volunteers = conditions: intrathecal morphine group; extremely low plasma levels; Bailey and colleagues
human surgical patients = conditions: propofol concentration, Shafer et al 1988

| SMILES | Effect on HRV (healthy human volunteers) | EC50 for awakening (human surgical patients) [µg/mL] | EC50 for orientation (human surgical patients) [µg/mL] |
| --- | --- | --- | --- |
| CN1CC[C@]23c4c5ccc(O)c4O[C@H]2[C@@H](O)C=C[C@H]3[C@H]1C5 [morphine] | substantial reduction |  |  |
| CC(C)c1cccc(C(C)C)c1O [propofol, 2,6-diisopropylphenol] |  | 1.07 ± 0.13 | 0.95 ± 0.19 |
